These results are taken from patent US12037324B2, “Biarylmethyl heterocycles” (Université de Montréal, priority 2016, dated 2024).

Experiment [1] deals with T1, AGTR1 (Homo sapiens, UniProt P30556).
T1 construct: host or cells: Pathunter CHO-K1 AGTR1 β-arrestin cell line (CHO-K1)
T1 sequence (P30556 1-359): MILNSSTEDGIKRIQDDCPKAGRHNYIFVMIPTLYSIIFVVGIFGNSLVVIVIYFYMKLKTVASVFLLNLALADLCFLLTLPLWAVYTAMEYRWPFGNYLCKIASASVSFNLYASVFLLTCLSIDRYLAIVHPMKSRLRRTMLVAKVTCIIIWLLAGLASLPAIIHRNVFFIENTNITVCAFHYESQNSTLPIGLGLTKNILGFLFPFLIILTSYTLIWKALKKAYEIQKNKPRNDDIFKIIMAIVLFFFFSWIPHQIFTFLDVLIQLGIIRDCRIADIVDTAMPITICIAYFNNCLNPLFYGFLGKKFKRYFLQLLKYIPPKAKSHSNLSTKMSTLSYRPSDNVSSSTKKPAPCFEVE
Nature of the experiment: DiscoveRx IP1 accumulation assay (HTRF), agonist mode, Pathunter CHO-K1 AGTR1 β-arrestin cell line. The format is cell-based. The settings on record: for EC50: read-out: IP-1 EC50. The essentials:
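Agonist mode in CHO-K1 AGTR1 β-arrestin cells plated 14-16 h before; compounds at varying concentrations for 90 min at 37° C, IP1 accumulation read by HTRF (D2-conjugate and anti-IP1 cryptate, 20 min room temperature). EC50 from 4-parameter logistic fit; activity given as percentage of maximal AII effect.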
In general terms: Time-resolved FRET reads energy transfer from a long-lived donor to a nearby acceptor.

For experiment [2], the target named is T2, hAT1R (Homo sapiens, UniProt P30556).
T2 sequence (P30556 1-359): T1 sequence (P30556 1-359)
Nature of the experiment: BRET β-arrestin2 biosensor assay, higher receptor expression (hAT1R 5 ng/well), HEK293 cells. The format is cell-based. Conditions: for EC50: High AT1R Expression. A general note: Bioluminescence resonance energy transfer reports proximity on the nanometre scale.

In experiment [3] the target is T2, hAT1R. Nature of the experiment: cell-based.
Experiment [4] deals with T1, AGTR1. The experiment in a line: DiscoveRx β-arrestin2 recruitment assay (enzyme complementation, Pathunter CHO-K1 AGTR1 β-arrestin cell line). In kind it is cell-based. Conditions: for DiscoveRx β-arrestin2 Ymax (%): maximal response. The essentials: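 Chemiluminescent enzyme-complementation read-out of β-arrestin2 recruitment to AGTR1 in engineered CHO-K1 cells after 90 min compound exposure at 37° C. Values are 4-parameter logistic EC50s in agonist mode, IC50s in antagonist mode, with efficacy relative to the maximal All response.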
(Activated receptors often draw arrestin, which recruitment assays turn into a signal.)

The mark [5] stands for this setting: section of the 42nd table ending at r951, example numbering restarts after the DiscoveRx section, read-out: β-arrestin2 EC50.
Where [6] appears, read: DiscoveRx β-arrestin2 recruitment.
Setting [7] is: Low AT1R Expression, read-out: BRET β-Arrestin2 Low AT1R Expression EC50.

Bounds are passed on as bounds.

With `CCc1nc2c(C)cc(C)nc2n1Cc1ccc(-c2cc(-c3cccc(C)c3)ccc2C(=O)O)cc1` [Example 182], in experiment [1], the “IP-1 Ymax (%)” value is recorded as 6.6%. Moreover, the EC50 in experiment [1] turned out to be 132 nM; in experiment [2] it was 7 nM; in experiment [3] (setting [5]) it was 26.3 nM; in experiment [4] (setting [6]) it was 84.9 nM. Further, the “BRET β-Arrestin2 High AT1R Expression Ymax (%)” value in experiment [2] was found to be 90.4%. Moreover, in experiment [4] (setting [6]), the “DiscoveRx β-arrestin2 Ymax (%)” value is on record as 74.2%.
Consider `CCc1nc2c(C)cc(C)nc2n1Cc1ccc(-c2cc(-n3ccc(C(F)(F)F)n3)ccc2-c2nnn[nH]2)cc1` [Example 219], for which, in experiment [1], the “IP-1 Ymax (%)” value turned out to be 6.9% and the 50% effective concentration (EC50) came out at 117 nM. In addition, the EC50 in experiment [3] (setting [5]) is 33.2 nM. Moreover, in experiment [4] (setting [6]), it took 35.2 nM to reach a half-maximal effect (EC50) and the “DiscoveRx β-arrestin2 Ymax (%)” value came out at 21.6%.
Consider `CCCCC1=NC2(CCOC2)C(=O)N1Cc1ccc(-c2cc(-c3ccccc3F)ccc2-c2nnn[nH]2)cc1` (single isomer, unassigned) [Example 148], for which the “IP-1 Ymax (%)” value in experiment [1] is given as 6.1%. Also, in experiment [2], the “BRET β-Arrestin2 High AT1R Expression Ymax (%)” value stood at 72.8% and the midpoint of the response, the EC50, lay at 90.4 nM. Also, the “BRET β-Arrestin2 Low AT1R Expression Ymax (%)” value in experiment [3] (Low AT1R Expression) is 17.7%. Also, in experiment [3] (setting [7]), the EC50 amounted to 141 nM. In experiment [4] (setting [6]), the EC50 was 103 nM and the “DiscoveRx β-arrestin2 Ymax (%)” value was 34.8%.
For the compound `CCc1nc2c(C)cc(C)nc2n1Cc1ccc(-c2cc(C(=O)c3ccccc3)ccc2-c2nnn[nH]2)cc1` [Example 210, (4′-((2-Ethyl-5,7-dimethyl-3H-imidazo[4,5-b]pyridin-3-yl)methyl)-6-(1H-tetrazol-5-yl)-[1,1′-biphenyl]-3-yl)(phenyl)methanone], the “IP-1 Ymax (%)” value in experiment [1] was determined as 14.8%. Moreover, the EC50 worked out at 82.7 nM in experiment [1], 9 nM in experiment [2], 28.4 nM in experiment [3] (setting [5]) and 8.6 nM in experiment [4] (setting [6]). Further, the “BRET β-Arrestin2 High AT1R Expression Ymax (%)” value in experiment [2] is listed as 88.2%. Besides, in experiment [4] (setting [6]), the “DiscoveRx β-arrestin2 Ymax (%)” value is 48.4%.
In the case of `CCc1nc2c(C)cc(C)nc2n1Cc1ccc(-c2cc(-c3ccccc3OC)ccc2-c2nn[nH]n2)cc1` [Example 5], in experiment [1], the “IP-1 Ymax (%)” value stood at 15.1% and the EC50 stood at 23.8 nM. In experiment [2], the “BRET β-Arrestin2 High AT1R Expression Ymax (%)” value is on record as 76.2% and the EC50 is 16 nM. Moreover, the “BRET β-Arrestin2 Low AT1R Expression Ymax (%)” value in experiment [3] (Low AT1R Expression) is 22.9%. Besides, the EC50 in experiment [3] (setting [7]) is 12.1 nM. Further, in experiment [4] (setting [6]), a half-maximal effect (EC50) was put at 14.5 nM and the “DiscoveRx β-arrestin2 Ymax (%)” value is 30.9%.
As to `CCc1nc2c(C)cc(C)nc2n1Cc1ccc(-c2cc(-c3cccnc3OC)ccc2-c2nn[nH]n2)cc1` [Example 24, 2-ethyl-3-((5′-(2-methoxypyridin-3-yl)-2′-(2H-tetrazol-5-yl)-[1,1′-biphenyl]-4-yl)methyl)-5,7-dimethyl-3H-imidazo[4,5-b]pyridine], the “IP-1 Ymax (%)” value in experiment [1] is 14.5%. Besides, the EC50 in experiment [1] came to 20.7 nM; in experiment [2] it was 13.5 nM; in experiment [3] (setting [7]) it was 13.9 nM; in experiment [4] (setting [6]), 13.4 nM. Besides, in experiment [2], the “BRET β-Arrestin2 High AT1R Expression Ymax (%)” value was 73.1%. For the same compound, the “BRET β-Arrestin2 Low AT1R Expression Ymax (%)” value in experiment [3] (Low AT1R Expression) is given as 21.6%. Further, the “DiscoveRx β-arrestin2 Ymax (%)” value in experiment [4] (setting [6]) was found to be 24.1%.
In the case of `CCc1nc2c(C)cc(C)nc2n1Cc1ccc(-c2cc(-c3ccc(C(=O)N(C)C)cc3)ccc2-c2nn[nH]n2)cc1` [Example 11], in experiment [1], the “IP-1 Ymax (%)” value was found to be 3.8%. The EC50 in experiment [1] was 17.8 nM; in experiment [2] it was 22 nM; in experiment [3] (setting [7]), 35.3 nM; in experiment [4] (setting [6]) it was 9.9 nM. Also, in experiment [2], the “BRET β-Arrestin2 High AT1R Expression Ymax (%)” value was 79.2%. Moreover, the “BRET β-Arrestin2 Low AT1R Expression Ymax (%)” value in experiment [3] (Low AT1R Expression) amounted to 16.9%. Moreover, the “DiscoveRx β-arrestin2 Ymax (%)” value in experiment [4] (setting [6]) turned out to be 36.3%.
On to `CCc1nc2c(C)cc(C)nc2n1Cc1ccc(-c2cc(-c3ccccc3)ccc2C(=O)O)cc1` [Example 31, 4″-((2-ethyl-5,7-dimethyl-3H-imidazo[4,5-b]pyridin-3-yl)methyl)-[1,1′:3′,1″-terphenyl]-4′-carboxylic acid], for which, in experiment [1], the “IP-1 Ymax (%)” value was 12.3% and the concentration giving a half-maximal response (EC50) stood at 234 nM. Further, in experiment [2], the “BRET β-Arrestin2 High AT1R Expression Ymax (%)” value is recorded as 85.5% and a half-maximal response (EC50) required 58.2 nM. In addition, the “BRET β-Arrestin2 Low AT1R Expression Ymax (%)” value in experiment [3] (Low AT1R Expression) amounted to 42.4%. In addition, the EC50 in experiment [3] (setting [7]) is 84.7 nM. In addition, in experiment [4] (setting [6]), the EC50 is 33.9 nM and the “DiscoveRx β-arrestin2 Ymax (%)” value stood at 55.1%.
Take `CCc1nc2c(C)cc(C)nc2n1Cc1ccc(-c2cc(-c3ccccc3OC(F)(F)F)ccc2-c2nn[nH]n2)cc1` [Example 1]: the “IP-1 Ymax (%)” value in experiment [1] was determined as 18.7%. Also, the EC50 in experiment [1] is 20.7 nM; in experiment [2], 7.2 nM; in experiment [3] (setting [7]), 29.5 nM; in experiment [4] (setting [6]), 15.5 nM. The “BRET β-Arrestin2 High AT1R Expression Ymax (%)” value in experiment [2] came out at 86.9%. The “BRET β-Arrestin2 Low AT1R Expression Ymax (%)” value in experiment [3] (Low AT1R Expression) is 61.8%. Further, the “DiscoveRx β-arrestin2 Ymax (%)” value in experiment [4] (setting [6]) is reported as 44.1%.
For the compound `CCCCC1=NC2(CCCC2)C(=O)N1Cc1ccc(-c2cc(-c3cccc(C)n3)ccc2-c2nn[nH]n2)cc1` [Example 138], in experiment [1], the “IP-1 Ymax (%)” value amounted to 6.3% and the EC50 was found to be 54.1 nM. Also, in experiment [2], the “BRET β-Arrestin2 High AT1R Expression Ymax (%)” value was 73.2% and the EC50 was 56.9 nM. Also, in experiment [3] (setting [7]), the EC50 was over 10000 nM. Further, in experiment [4] (setting [6]), the midpoint of the response, the EC50, lay at 13.4 nM and the “DiscoveRx β-arrestin2 Ymax (%)” value is on record as 27.9%.
`CCc1nc2c(C)cc(C)nc2n1Cc1ccc(-c2cc(-c3ccccc3C(C)C)ccc2-c2nn[nH]n2)cc1` [Example 3]: in experiment [1], the “IP-1 Ymax (%)” value is 29.9% and the half-maximal effective concentration (EC50) is 45600 nM. In addition, in experiment [2], the “BRET β-Arrestin2 High AT1R Expression Ymax (%)” value is 79.6% and a half-maximal effect (EC50) was put at 14.9 nM. Also, the “BRET β-Arrestin2 Low AT1R Expression Ymax (%)” value in experiment [3] (Low AT1R Expression) came out at 30.6%. Also, the EC50 in experiment [3] (setting [7]) is 24.2 nM. Also, in experiment [4] (setting [6]), the EC50 stood at 21.2 nM and the “DiscoveRx β-arrestin2 Ymax (%)” value is reported as 22.9%.
For `CCc1nc2c(C)cc(C)nc2n1Cc1ccc(-c2cc(-c3cccc(OC)n3)ccc2-c2nn[nH]n2)cc1` [Example 29], in experiment [1], the “IP-1 Ymax (%)” value is reported as 12.1% and the EC50 was 38.7 nM. In experiment [2], the “BRET β-Arrestin2 High AT1R Expression Ymax (%)” value is recorded as 82.7% and the EC50 is 11.3 nM. In addition, the “BRET β-Arrestin2 Low AT1R Expression Ymax (%)” value in experiment [3] (Low AT1R Expression) is given as 42.2%. Further, the EC50 in experiment [3] (setting [7]) worked out at 18.9 nM. Also, in experiment [4] (setting [6]), the 50% effective concentration (EC50) was 8.6 nM and the “DiscoveRx β-arrestin2 Ymax (%)” value stood at 29.8%.
For `CCCCC1=NC2(CCCC2)C(=O)N1Cc1ccc(-c2cc(-c3cncc(C)c3)ccc2-c2nn[nH]n2)cc1` [Example 129], in experiment [1], the “IP-1 Ymax (%)” value is reported as 2.0% and the half-maximal effective concentration (EC50) came out at 119 nM. In addition, in experiment [2], the “BRET β-Arrestin2 High AT1R Expression Ymax (%)” value came out at 40.7% and it took 240 nM to reach a half-maximal effect (EC50). In experiment [3] (setting [7]), the EC50 is over 10000 nM. Further, in experiment [4] (setting [6]), the EC50 worked out at 33.5 nM and the “DiscoveRx β-arrestin2 Ymax (%)” value is given as 12.9%.
As to `Cc1cnn(-c2ccc(-c3nn[nH]n3)c(-c3ccc(Cn4nc(C)nc4C)cc3)c2)c1` [Example 457, 5-(4′-((3,5-Dimethyl-1H-1,2,4-triazol-1-yl)methyl)-5-(4-methyl-1H-pyrazol-1-yl)-[1,1′-biphenyl]-2-yl)-2H-tetrazole], the 50% effective concentration (EC50) in experiment [3] (setting [5]) stood at 993 nM; in experiment [4], 1140 nM.
Take `CCc1nc2c(C)cc(C)nc2n1Cc1ccc(-c2cc(-c3ccccc3F)ccc2-c2nn[nH]n2)cc1` [Example 19]: in experiment [1], the “IP-1 Ymax (%)” value is 12.2% and the EC50 was determined as 27.4 nM. In experiment [2], the “BRET β-Arrestin2 High AT1R Expression Ymax (%)” value was determined as 89.8% and a half-maximal response (EC50) required 2.4 nM. Besides, the “BRET β-Arrestin2 Low AT1R Expression Ymax (%)” value in experiment [3] (Low AT1R Expression) is 73.7%. The EC50 in experiment [3] (setting [7]) came to 12.1 nM. Further, in experiment [4] (setting [6]), the EC50 came to 7.5 nM and the “DiscoveRx β-arrestin2 Ymax (%)” value was 57.9%.

Broadly, the EC50 is the concentration at which the effect is half-maximal.
